This note sets out measurements from patent publication US10082496B2, “Targeting emopamil binding protein (EBP) with small molecules that induce an abnormal feedback response by lowering endogenous cholesterol biosynthesis” (Board of Regents of the University of Texas System, priority 2014, dated 2018).

Data set [1] has as its system HCT116 cells. Nature of the data set: Dose response studies in CRC line HCT116 (wt APC). The settings on record: Homo sapiens, HCT-116; read-out: IC50 towards HCT116 cells. Format: cell-based. From the text:
These 14 compounds then were obtained commercially and their IC50 determined by performing dose response studies with half log dilution series at 12 concentration points in two authentic CRC lines: HCT116 (wt APC) and DLD1 (truncated APC). […] These two compounds served as initial lead compounds for analog development and for additional studies.

Data set [2] concerns DLD1 tumors. The data set is described as follows: DLD1 xenograft mouse model. The settings on record: 40 mg/kg intraperitoneally twice daily for 18 days. The class given is in vivo.
In data set [3] the test system is colorectal tumors in CPC;Apc mice. Nature of the data set: CPC;Apc genetically engineered mouse model of colorectal tumors. To be noted: in vivo. The method, then: These mice carry a CDX2P-NLS Cre recombinase transgene and a loxP-targeted Apc allele that deletes exon 14, leading to a frame shift at codon 580 and a truncated APC protein (Hinoi, T. et al. Mouse model of colonic adenoma-carcinoma progression based on somatic Apc inactivation. Cancer Res 67, 9721-9730 (2007)). […] Weights were measured every 15 days over the treatment period. These studies were performed according to the guidelines of the UT Southwestern Institutional Animal Care and Use Committee.

The test system of data set [4] is DLD1 cells. The data set is described as follows: Dose response studies in CRC line DLD1 (truncated APC). The class given is cell-based, human. To be noted: varying doses. As to the method:
These 14 compounds then were obtained commercially and their IC50 determined by performing dose response studies with half log dilution series at 12 concentration points in two authentic CRC lines: HCT116 (wt APC) and DLD1 (truncated APC).
DLD-1 cells normally are cultured in 10% serum medium, and they are rapidly shifted to 0.2% serum medium for dose response studies.

Data set [5] has as its system DLD-1. The data set is described as follows: In vitro APC inhibition assay (MTT), DLD-1. Format: cell-based. To be noted: Homo sapiens, DLD-1, DLD-1 (truncated APC). As to the method:
(§1) The small molecule anti-cancer compounds were evaluated for the ability to inhibit the activity of APC in an in vitro assay.
(§2) Reagents required for the assay are: (3-[4,5-Dimethylthiazol-2-yl]-2,5-diphenyltetrazolium bromide; Thiazolyl blue; RPI corp., cat# M92050); RPMI-1640 or Medium of Choice (i.e. DMEM) without phenol red; 1M Hepes; 100 mM NaPyruvate; 1000× Gentamicin (50 mg/ml); 100× Penicillin/Streptomycin/Fungizone; 1×PBS; Triton X-100; 1N HCl and Isopropanol. To make the MTT solution (10×), MTT powder was dissolved into complete RPMI (or DMEM solution) to a final concentration of 5 mg/mL and was sterilized by filtration with a 0.2 μm filter. The MTT solubilization solution contained 10% Triton X-100, 0.1N and 80% isopropanol. MTT solution was diluted to 1× with complete medium at 12 mL per plate. The culture dishes (96 wells) were removed from the incubator and the media was discarded. […] The cells were removed from the incubator and the MTT solution was discarded.
(§3) Percent inhibition was determined relative to control reactions without inhibitor, and half maximal inhibitory concentration (IC50) values were determined using a standard four parameter fit to the inhibition data.

Data set [6] is described as follows: S9 half-life. Format: in vitro ADME. To be noted: S9 fraction; read-out: S9 T1/2.
The subject of data set [7] is HCT-116. Nature of the data set: In vitro APC inhibition assay (MTT), HCT-116. Format: cell-based. The settings on record: Homo sapiens, HCT-116, read-out: IC50 (nM) in HCT-116. The method, then: as §1
Reagents required for the assay are: (3-[4,5-Dimethylthiazol-2-yl]-2,5-diphenyltetrazolium bromide; Thiazolyl blue; RPI corp., cat# M92050); RPMI-1640 or Medium of Choice (i.e. DMEM) without phenol red; 1M Hepes; 100 mM NaPyruvate; 1000× Gentamicin (50 mg/ml); 100× Penicillin/Streptomycin/Fungizone; 1×PBS; Triton X-100; 1N HCl and Isopropanol. To make the MTT solution (10×), MTT powder was dissolved into complete RPMI (or DMEM solution) to a final concentration of 5 mg/mL and was sterilized by filtration with a 0.2 μm filter. The MTT solubilization solution contained 10% Triton X-100, 0.1N and 80% isopropanol. MTT solution was diluted to 1× with complete medium at 12 mL per plate. The culture dishes (96 wells) were removed from the incubator and the media was discarded. The plates were washed three times with 1×PBS. 100 μl of 1×MTT solution was added to each well and the plates were incubated in a tissue culture incubator for 2-4 hours, depending on the cell line. The cells were removed from the incubator and the MTT solution was discarded. 200 μl of 1×MTT solubilization solution was added to each well using a multi-channel pipetor and the cells were placed on an orbital shaker for 10 minutes. The results were read on a microtiter plate reader (absorbance=570 nm, reference=700 nm) and data was exported.
as §3

Data set [8] relates to HT-29. Nature of the data set: In vitro APC inhibition assay (MTT), HT-29. The class given is cell-based. The settings on record: Homo sapiens, HT-29, HT-29 (truncated APC). As to the method:
as §1, §2, §3

As usually defined, the IC50 is the concentration that inhibits the measured activity by half. Consider `COc1ccc(S(=O)(=O)N2CCC(N3CCC(C)CC3)CC2)cc1` [TASIN-1], for which the IC50 in data set [1] is above 10000 nM. Further, the overt toxicity entry in data set [2] is listed as “no overt toxicity”. In data set [3], the “toxicity in xenograft and genetically engineered CRC mouse models” value is listed as “without noticeable toxicity”.

In the case of `COc1ccc2c(c1)CCC(c1ccccc1)=C2c1ccc(OCCN2CCCC2)cc1` [Nafoxidine], the “sensitivity of DLD-1 vs HCT-116 cells to EBP inhibitors (FIG. 10)” value in data set [4] is listed as “selectively sensitive”.

Take `CC1CCN(C2CCN(S(=O)(=O)c3c(C(C)C)cc(C(C)C)cc3C(C)C)CC2)CC1`: half-maximal inhibition in data set [5] (IC50) required 0.7 nM. In data set [6], the half-life was 59 min.

Consider `C#CCC1CCN(C2CCN(S(=O)(=O)c3ccccc3)CC2)CC1`, for which the 50% inhibitory concentration (IC50) in data set [7] is above 10000 nM; in data set [5], 18 nM; in data set [8], 4 nM. The half-life in data set [6] was 25.2 min.

With `CC(C(O)c1ccc(O)cc1)N1CCC(Cc2ccccc2)CC1` (centres unmarked) [Ifenprodil], the “sensitivity of DLD-1 vs HCT-116 cells to EBP inhibitors (FIG. 10)” value in data set [4] is “selectively sensitive”.
